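Values below derive from 48-hour exposures of cells grown in 96-well plates, with endpoints linearly interpolated between the two concentrations bracketing the appropriate inhibition level. At the GI50, growth is halved.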 Active and inactive are the calls of the source. No stated cut-off is given here; in the data, active = GI50 up to about 1.1 µM and inactive = higher.

Results on 12 compounds are retold here after ChEMBL document CHEMBL1201862, “PubChem BioAssay data set” (2004).

What all share (experiment): growth of human tumour cells (NCI), 48 h
Assay [1] has as its system SK-MEL-28.
Assay [2] has as its system 786-0.
Assay [3] concerns MDA-MB-435.
Assay [4] concerns SN12C.
In assay [5] the test system is TK-10.
Assay [6] concerns Malme-3M.
Assay [7] relates to RXF 393.
In assay [8] the test system is NCI-H522.
For assay [9], the system named is HL-60.
In assay [10] the test system is COLO 205.
Assay [11] concerns BT-549.
Assay [12] deals with DU-145.
Assay [13] relates to SK-MEL-2.
Assay [14] relates to K562.
Assay [15] relates to HCT-116.
Assay [16] concerns HOP-62.
Assay [17] concerns SF-295.
The subject of assay [18] is M14.
For assay [19], the system named is HT-29.
Assay [20] deals with DMS-114.

Turning to `COc1ccc2c(c1)c1nn(CCN(C)C)c3ccc4c(=O)n(CCN(C)C)c(=O)n2c4c13`, the GI50 in assay [1] was 0.22 µM (active); in assay [2] it was < 0.01 µM (active); in [3], < 0.019 µM (active); in assay [4] it was < 0.0234 µM (active); in [5], 0.0649 µM (active); in assay [6], 0.0904 µM (active). The GI50 in [7] was 0.133 µM (active); in assay [8], < 0.01 µM (active); in [9], 0.042 µM (active); in assay [10], < 0.0143 µM (active); in assay [11], 0.946 µM (active); in assay [12], 0.0135 µM (active). Moreover, the GI50 is 0.0323 µM (active) in assay [13]; < 0.019 µM (active) in assay [14]; < 0.01 µM (active) in [15]; < 0.01 µM (active) in assay [16]; < 0.01 µM (active) in [17]; 0.105 µM (active) in assay [18]. The GI50 in assay [19] is < 0.01 µM (active).

On to `CC1(C)OC(=O)C(=C2CC(c3ccccc3)c3ccccc32)C(=O)O1` (stereo not given), for which the GI50 in [1], in assay [2], in [4], in assay [5], in [6] and in assay [7] was > 100 µM (inactive) throughout. Further, the GI50 in assay [8], in assay [9], in assay [10], in [14], in assay [20] and in [15] was > 100 µM (inactive) throughout. The GI50 in assay [16], in [17], in assay [18] and in assay [19] was > 100 µM (inactive) in each case.

With `O=c1nc2sc3ccc4ccccc4c3n2nc1-c1ccccc1`, the GI50 in [1] is 35.6 µM (inactive); in assay [2] it was 18.7 µM (inactive); in [4], 27.2 µM (inactive); in assay [5], 23.1 µM (inactive); in [6], 21.4 µM (inactive); in assay [7] it was 21 µM (inactive). Also, the GI50 in assay [9] was > 100 µM (inactive); in assay [10], 56.2 µM (inactive); in assay [13], > 100 µM (inactive); in assay [14], > 100 µM (inactive); in assay [20] it was > 100 µM (inactive); in assay [15], 21.7 µM (inactive). In addition, the GI50 was 26.7 µM (inactive) in [16], 16.8 µM (inactive) in assay [17], 44.4 µM (inactive) in assay [18] and 94.8 µM (inactive) in assay [19].

For the compound `COC(=O)c1ccccc1N1C(=O)Cc2ccccc2C1=O`, the GI50 in assay [1] is > 100 µM (inactive); in [2] it was 66.1 µM (inactive); in [4], > 100 µM (inactive); in assay [5], > 100 µM (inactive); in assay [6], > 100 µM (inactive); in assay [7], 42.3 µM (inactive). Besides, the GI50 in assay [10] is > 100 µM (inactive); in [13] it was > 100 µM (inactive); in [14], > 100 µM (inactive); in assay [20], > 100 µM (inactive); in [15], > 10 µM (inactive); in [17] it was 45.4 µM (inactive). Besides, in assay [19], the GI50 was > 100 µM (inactive).

For the compound `NC(Cc1c[nH]c2ccccc12)P(=O)(O)O` (stereo not given), the GI50 in assay [1], in assay [2], in assay [3], in assay [4], in [5] and in assay [6] was > 100 µM (inactive) throughout. In addition, the GI50 in [7], in assay [8], in assay [9], in assay [10], in assay [11] and in assay [12] was > 100 µM (inactive) in each case. Further, the GI50 in assay [13], in assay [14], in assay [15], in assay [16], in assay [17] and in assay [18] was > 100 µM (inactive) each time. For the same compound, the GI50 in assay [19] was > 100 µM (inactive).

As for `O=C(N/C(=C\c1ccc(F)cc1)c1nc2ccccc2[nH]1)c1ccccc1`, the GI50 in assay [1], in assay [2], in assay [4], in [5], in assay [6] and in assay [7] was > 100 µM (inactive) in each case. Besides, the GI50 in assay [8], in [10], in [13], in assay [14], in [20] and in assay [15] was > 100 µM (inactive) in each case. Further, the GI50 in [18] and in assay [19] was > 100 µM (inactive) in each case.

For the compound `CCOC(=O)c1cc2nc3ccccc3c(=O)n2c2ccccc12`, the GI50 in [1], in assay [2], in assay [3], in assay [4], in assay [5] and in assay [6] was > 10 µM (inactive) each time. Moreover, the GI50 in assay [7], in assay [8], in [9], in assay [10], in assay [11] and in [12] was > 10 µM (inactive) throughout. Besides, the GI50 in assay [13], in assay [14], in assay [15], in [16], in assay [17] and in [18] was > 10 µM (inactive) throughout. In addition, in assay [19], the GI50 is > 10 µM (inactive).

As to `COc1c(C(=O)O)oc2c(OC)cccc12`, the GI50 in [1], in assay [2], in assay [4], in assay [5], in assay [6] and in assay [8] was > 100 µM (inactive) in each case. The GI50 in [9], in assay [10], in [13], in [14], in assay [20] and in assay [15] was > 100 µM (inactive) throughout. The GI50 in [16], in assay [17], in [18] and in assay [19] was > 100 µM (inactive) each time.

Turning to `CCOC(=O)CN1C(=O)c2c(c(C)n(-c3ccccc3)c2C)C1=O`, the GI50 in assay [1], in assay [2], in assay [3], in [4], in assay [5] and in assay [6] was > 100 µM (inactive) in each case. Moreover, the GI50 was 26 µM (inactive) in assay [7]; > 100 µM (inactive) in assay [8]; > 100 µM (inactive) in [9]; > 100 µM (inactive) in assay [10]; > 100 µM (inactive) in assay [11]; > 100 µM (inactive) in assay [12]. Besides, the GI50 in assay [13] was > 100 µM (inactive); in [14], > 100 µM (inactive); in assay [15], > 100 µM (inactive); in [16], 36 µM (inactive); in assay [17], > 100 µM (inactive); in assay [18], > 100 µM (inactive). Besides, the GI50 in assay [19] is > 100 µM (inactive).

As to `C=C(C)C(=O)O[C@H]1CC2(CO)O[C@@H]2CC/C(COC(C)=O)=C/C2OC(=O)C(=C)[C@@H]21` (stereo not given in full), the GI50 in assay [1] was 23.6 µM (inactive); in [2], 20.2 µM (inactive); in assay [3], 31.8 µM (inactive); in assay [4], 92 µM (inactive); in assay [5] it was 25.4 µM (inactive); in assay [6] it was 23.4 µM (inactive). Also, the GI50 in assay [7] is 12.1 µM (inactive); in assay [8], 16.4 µM (inactive); in assay [9] it was 8.67 µM (inactive); in assay [10], 18.2 µM (inactive); in assay [11], 21.8 µM (inactive); in [12], > 96.6 µM (inactive). Besides, the GI50 in [13] is 52.4 µM (inactive); in assay [14], 23.9 µM (inactive); in [15] it was 18.2 µM (inactive); in assay [16], > 100 µM (inactive); in assay [17], > 100 µM (inactive); in assay [18], 21 µM (inactive). Moreover, the GI50 in assay [19] was 34.8 µM (inactive).

As to `CCCC(O)[C@@H](O)c1ccc2c(c1O)C(=O)c1c(OC)cccc1C2=O` (stereo not given in full), the GI50 is 66.4 µM (inactive) in [1]; 37.5 µM (inactive) in [2]; 40.4 µM (inactive) in [4]; 51.4 µM (inactive) in assay [5]; 40.7 µM (inactive) in assay [6]; 16.1 µM (inactive) in assay [8]. Also, the GI50 is 18.4 µM (inactive) in assay [9]; 20.9 µM (inactive) in assay [10]; 46.8 µM (inactive) in [13]; 34.3 µM (inactive) in [14]; 26.2 µM (inactive) in [20]; 38.5 µM (inactive) in assay [15]. Also, the GI50 in assay [16] is 55.2 µM (inactive); in assay [17], 33 µM (inactive); in assay [18], 31.6 µM (inactive); in assay [19], 38.9 µM (inactive).

Consider `COc1ccc(C2Cc3cc(OC)c(OC)c(OC)c3C2)cc1` (stereo not given), for which the GI50 is 31.2 µM (inactive) in assay [1]; 61.4 µM (inactive) in assay [2]; 52.2 µM (inactive) in [4]; 30.3 µM (inactive) in assay [5]; 22.8 µM (inactive) in assay [6]; 66.7 µM (inactive) in assay [10]. In addition, the GI50 in assay [13] is 30.6 µM (inactive); in assay [14] it was 20.2 µM (inactive); in [20] it was 27.8 µM (inactive); in assay [15] it was 41 µM (inactive); in assay [16] it was 97.5 µM (inactive); in [17] it was 41.1 µM (inactive). Also, the GI50 is 35.6 µM (inactive) in assay [18] and 28.1 µM (inactive) in assay [19].
